Measured values from patent publication US11866412B1, “Acridin-9-one compounds as antibacterial agents” (KING FAISAL UNIVERSITY, priority 2023, dated 2024).
≈ marks a conversion by molar mass, not a printed value. Where two headings read alike, the source gives them in different places.

Columns and labels:
[1] = tested on: H37Rv type of M. tuberculosis strains; assay: antitubercular alamar blue microplate MIC assay; format: cell-based; details: mycobacterium tuberculosis H37Rv strain, read-out: anti-mycobacterial activity (MIC)
[2] = tested on: Klebsiella pneumonia MTCC 618; assay: in vitro antibacterial activity, dilution MIC (CLSI M07-A10); format: cell-based; details: Klebsiella pneumoniae, MTCC618
[3] = tested on: Pseudomonas aeruginosa MTCC 741; assay: as above; format: cell-based; details: MTCC741
[4] = tested on: Staphylococcus epidermidis; assay: as above; format: cell-based
[5] = tested on: Enterococcus faecium ATCC 51559 (VRE resistant); assay: as above; format: cell-based
[6] = tested on: Staphylococcus aureus ATCC 29213; assay: as above; format: cell-based; details: ATCC29213
DNA gyrase from E. coli = target: T1, DNA gyrase from E. coli (Escherichia coli, UniProt P0AES4+P0AES6); assay: Inhibitory activities on E. coli DNA Gyrase (Inspiralis assay); format: biochemical
T1 construct: purchased Inspiralis
T1 sequence (P0AES4 whole entry, one chain of several): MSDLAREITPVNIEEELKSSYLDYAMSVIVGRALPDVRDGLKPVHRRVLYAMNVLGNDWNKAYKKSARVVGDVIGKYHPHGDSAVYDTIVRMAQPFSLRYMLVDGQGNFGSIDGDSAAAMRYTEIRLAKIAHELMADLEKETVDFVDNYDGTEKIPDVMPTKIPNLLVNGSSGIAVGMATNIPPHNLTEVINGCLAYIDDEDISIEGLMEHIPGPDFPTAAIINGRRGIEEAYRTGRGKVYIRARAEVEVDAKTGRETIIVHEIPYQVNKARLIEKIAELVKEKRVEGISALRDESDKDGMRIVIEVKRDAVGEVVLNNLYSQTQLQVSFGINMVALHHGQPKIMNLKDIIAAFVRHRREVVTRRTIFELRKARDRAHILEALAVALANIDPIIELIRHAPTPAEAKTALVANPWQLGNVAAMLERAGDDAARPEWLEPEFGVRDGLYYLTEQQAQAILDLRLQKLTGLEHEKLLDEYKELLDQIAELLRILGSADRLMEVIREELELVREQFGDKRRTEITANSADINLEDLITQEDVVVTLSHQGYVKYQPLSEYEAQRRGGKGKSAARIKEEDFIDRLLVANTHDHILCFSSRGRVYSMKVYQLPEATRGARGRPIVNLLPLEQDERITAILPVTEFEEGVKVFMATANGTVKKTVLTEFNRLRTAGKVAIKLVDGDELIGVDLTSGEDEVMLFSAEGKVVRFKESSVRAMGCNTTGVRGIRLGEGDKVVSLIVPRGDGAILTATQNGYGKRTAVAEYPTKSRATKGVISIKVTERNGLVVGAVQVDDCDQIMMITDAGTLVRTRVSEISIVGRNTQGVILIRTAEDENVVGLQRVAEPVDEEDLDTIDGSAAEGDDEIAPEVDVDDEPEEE
Method: First, the plates were rehydrated with buffer (20 mM Tris-HCl with pH 7.6, 0.01% w/v BSA, 0.05% v/v Tween 20, 137 mM NaCl) and the biotinylated oligonucleotide was then immobilized. After washing off the unbound oligonucleotide, the enzyme test was performed. […] Reaction solutions were incubated at 37° C. for 30 min. After that, the TF buffer (50 mM NaOAc with pH 5.0, 50 mM NaCl and 50 mM MgCl2) was added to terminate the enzymatic reaction. After additional incubation for 30 min at rt, during which biotinoligonucleotide-plasmid triplex was formed, the unbound plasmid was washed off using TF buffer and SybrGOLD in T10 buffer (10 mM Tris HCl with pH 8.0 and 1 mM EDTA) was added. The fluorescence was measured with a microplate reader (BioTek Synergy H4, excitation: 485 nm, emission: 535 nm). Initial screening was done at 100 or 10 μM concentration of inhibitors. […] GraphPad Prism software was used to calculate the IC50 values. The result is given as the average value of three independent measurements.

[7] = tested on: Enterococcus faecium ATCC 35667; assay: in vitro antibacterial activity, dilution MIC (CLSI M07-A10); format: cell-based; details: ATCC35667
[8] = tested on: Staphylococcus aureus ATCC BAA-1556 (MERSA resistant); assay: as above; format: cell-based; details: ATCCBAA1556
[9] = tested on: Escherichia coli MTCC 443; assay: as above; format: cell-based; details: MTCC443
[10] = tested on: Bacillus subtilis MTCC 441; assay: as above; format: cell-based; details: MTCC441

| Compound | MIC [1] [mg/L] | MIC ([2]; Klebsiella pneumonia MTCC 618, read-out: MIC) [mg/L] | MIC [3] [mg/L] | MIC [4] [mg/L] | MIC [5] [mg/L] | MIC [6] [mg/L] | IC50 (DNA gyrase from E. coli) [µM] | MIC [7] [mg/L] | MIC [8] [mg/L] | MIC [9] [mg/L] | MIC [10] [mg/L] | MIC [2] [mg/L] |
| --- | --- | --- | --- | --- | --- | --- | --- | --- | --- | --- | --- | --- |
| CCCCCN(C)Cc1ccc(C(=O)O)cc1-c1cnc2[nH]c3c(NC)cc(F)cc3c(=O)c2c1 [Compound 8, 3-(7-fluoro-9-(methylamino)-5-oxo-5,10-dihydrobenzo[b][1,8]naphthyridin-3-yl)-4-((methyl(pentyl)amino)methyl)benzoic acid] | 4 (≈ 8.39 µM) | 0.75 (≈ 1.57 µM) | 0.5 (≈ 1.05 µM) | 1 (≈ 2.1 µM) | 0.1 (≈ 0.21 µM) | 0.75 (≈ 1.57 µM) | 0.011 | 0.1 (≈ 0.21 µM) | 0.75 (≈ 1.57 µM) | 2 (≈ 4.2 µM) | 0.5 (≈ 1.05 µM) | – |
| CN[C@H](CC(C)C)C(=O)N[C@H]1C(=O)N[C@@H](CC(N)=O)C(=O)N[C@H]2C(=O)N[C@H]3C(=O)N[C@H](C(=O)N[C@H](C(=O)O)c4cc(O)cc(O)c4-c4cc3ccc4O)[C@H](O)c3ccc(c(Cl)c3)Oc3cc2cc(c3O[C@@H]2O[C@H](CO)[C@@H](O)[C@H](O)[C@H]2O[C@H]2C[C@](C)(N)[C@H](O)[C@H](C)O2)Oc2ccc(cc2Cl)[C@H]1O [Vancomycin, reference compound] | – | – | – | – | – | – | – | – | – | – | – | > 128 |
